For 16 compounds, IC50, inhibition and MIC results are on record in patent US20170216252A1, “ANTI-BACTERIAL PYRUVATE KINASE MODULATOR COMPOUNDS, COMPOSITIONS, USES AND METHODS” (SIMON FRASER UNIVERSITY, priority 2014, published 2017).

Each structure is given as a SMILES string. Values after ≈ are worked out from the molar mass of the structure shown. Values joined by “and” are separate entries in the source; they are usually repeats but may differ in a detail not shown here. Equal values may be shown once. Read-outs that look alike come from different tables or passages of the source.

For one assay, the target named is T1, MRSA PK (Staphylococcus aureus, UniProt Q6GG09).
T1 construct: His tag (pET-28a(+) vector) (N); made in house; host or cells: E. coli BL-21 (DE3)
The assay can be described thus: MRSA PK activity, continuous LDH-coupled assay. It is filed as biochemical, S. aureus (MRSA strain Sanger 252). To be noted: for inhibition at 10 µM: read-out: % Inhibition MRSA PK. In short, it runs like this:
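Activity was tracked as the 340 nm absorbance fall from NADH oxidation via coupled LDH, at 30 °C for ≤5 min. Reactions began on adding 15 nM recombinant His-tagged S. aureus PK, with inhibitor DMSO kept ≤1%. Four-parameter dose–response fitting gave IC50.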

The test system of a further assay is S. aureus ATCC 29213. Nature of the assay: In vitro susceptibility, broth microdilution MIC. It is filed as cell-based, Staphylococcus aureus. Conditions: Staphylococcus aureus. The method in brief:
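The MIC against S. aureus 29213 was determined by CLSI 2-fold serial broth microdilution in Mueller Hinton broth. Plates were incubated for 18–24 h at 37 °C and read at OD600 with background subtracted. The MIC was the lowest concentration giving complete growth inhibition versus compound-free wells.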
For orientation: Broth dilution looks for growth in wells or tubes with falling amounts of substance.

The mark [1] stands for this setting: Tables 1-6, 2 mM ADP, 10 mM PEP, 15 nM PK, read-out: IC50.
[2] abbreviates: ATCC29213, Tables 1-6 and text, minimum concentration to give >98% inhibition of growth, read-out: MIC.

By IC50 is commonly meant the midpoint of a concentration-inhibition curve. As usually defined, the inhibition is the drop in the measured response relative to a control, in per cent.

T1 sequence (Q6GG09 whole entry): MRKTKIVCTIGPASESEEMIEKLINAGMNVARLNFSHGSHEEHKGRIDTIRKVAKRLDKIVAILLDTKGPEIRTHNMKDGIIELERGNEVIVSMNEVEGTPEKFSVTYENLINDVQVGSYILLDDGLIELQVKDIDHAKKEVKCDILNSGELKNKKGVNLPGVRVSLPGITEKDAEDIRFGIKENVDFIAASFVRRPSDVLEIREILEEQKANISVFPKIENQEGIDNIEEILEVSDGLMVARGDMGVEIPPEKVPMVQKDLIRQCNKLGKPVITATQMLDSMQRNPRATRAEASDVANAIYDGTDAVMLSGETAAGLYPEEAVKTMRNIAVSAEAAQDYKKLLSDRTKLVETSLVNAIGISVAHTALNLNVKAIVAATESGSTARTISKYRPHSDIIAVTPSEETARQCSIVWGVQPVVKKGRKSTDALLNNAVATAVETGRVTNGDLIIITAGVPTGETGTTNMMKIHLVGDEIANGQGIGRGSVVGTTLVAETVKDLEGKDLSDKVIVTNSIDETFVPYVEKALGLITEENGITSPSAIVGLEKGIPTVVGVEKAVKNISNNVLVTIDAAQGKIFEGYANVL

Turning to `Brc1ccc2cc(/C=C/c3cc4ccccc4[nH]3)[nH]c2c1` [Compound 27a, (E)-2-(2-(1H-indol-2-yl)vinyl)-6-bromo-1H-indole], the IC50 at MRSA PK (setting [1]) amounted to 4.5 nM. Besides, the inhibition at 10 µM at MRSA PK is 93.4%. For the same compound, in the assay with S. aureus ATCC 29213 (setting [2]), the MIC is above 64 µg/mL.

Take `Brc1ccc2[nH]c(-c3cc4cc(Br)ccc4[nH]3)cc2c1` [Compound 10i, 5,5′-Bibromo-1H,1′H-2,2′-biindole]: the IC50 on MRSA PK (setting [1]) stood at 3 nM. Also, the inhibition at 10 µM on MRSA PK came to 71%. Moreover, the MIC in the assay with S. aureus ATCC 29213 (setting [2]) is above 64 µg/mL.

As to `Brc1ccc2[nH]c(C#Cc3cc4ccc(Br)cc4[nH]3)cc2c1` [Compound 25c, 6-Bromo-2-((5-bromo-1H-indol-2-yl)ethynyl)-1H-indole], the IC50 on MRSA PK (setting [1]) was found to be 4.7 nM. The inhibition at 10 µM on MRSA PK was determined as 86.3%. In addition, in the assay with S. aureus ATCC 29213 (setting [2]), the MIC amounted to 16 µg/mL (≈ 38.6 µM).

For the compound `Brc1ccc2[nH]c(-c3cc4ccc(Br)cc4[nH]3)cc2c1` [Compound 10c, 5,6-Bibromo-1H,1′H-2,2′-biiindole], the IC50 on MRSA PK (setting [1]) came to 2.2 nM. Further, at MRSA PK, the inhibition at 10 µM amounted to 97.8%. In the assay on S. aureus ATCC 29213 (setting [2]), the MIC stood at 0.3 µg/mL (≈ 0.769 µM).

On to `COc1cc(-c2cc3ccccc3[nH]2)ccc1-c1cc2ccc(Br)cc2[nH]1` [Compound 33e, 2-(4-(1H-indol-2-yl)-2-methoxyphenyl)-6-bromo-1H-indole], for which the IC50 on MRSA PK (setting [1]) was 2.1 nM. Further, at MRSA PK, the inhibition at 10 µM amounted to 62.2%. The MIC in the assay on S. aureus ATCC 29213 (setting [2]) is above 64 µg/mL.

On to `Brc1ccc2cc(CCc3cc4ccc(Br)cc4[nH]3)[nH]c2c1` [Compound 28a, 1,2-bis(6-bromo-1H-indol-2-yl)ethane], for which the half-maximal inhibitory concentration (IC50) on MRSA PK (setting [1]) is 6 nM and 6.5 nM. Also, the inhibition at 10 µM at MRSA PK worked out at 93.4%. The MIC in the assay on S. aureus ATCC 29213 (setting [2]) is above 64 µg/mL.

`Cn1c(-c2cc3ccc(Br)cc3[nH]2)cc2cc(Br)ccc21` [Compound 12a, 5,6′-Dibromo-1-methyl-1H,1′H-2,2′-biindole]: at MRSA PK (setting [1]), the IC50 came to 1 nM. In addition, the inhibition at 10 µM at MRSA PK amounted to 99%. The MIC in the assay on S. aureus ATCC 29213 (setting [2]) was above 64 µg/mL.

`Brc1cc2cc(-c3cc4cc(Br)c(Br)cc4[nH]3)[nH]c2cc1Br` [Compound 10l, 5,5′,6,6′-Tetrabromo-1H,1′H-2,2′-biindole]: on MRSA PK (setting [1]), the IC50 is 2 nM. For the same compound, the inhibition at 10 µM at MRSA PK came out at 97.6%. The compound also showed an MIC in the assay with S. aureus ATCC 29213 (ATCC29213) above 64 µg/mL.

In the case of `Brc1ccc2c(c1)cc(-c1cc3ccc(Br)cc3[nH]1)n2CCN1CCOCC1` [Compound 20b, 4-(2-(5,6′-dibromo-1H,1′H-[2,2′-biindol]-1-yl)ethyl)morpholine], the IC50 on MRSA PK (setting [1]) stood at 1.2 nM. Further, on MRSA PK, the inhibition at 10 µM was 101%. Also, the MIC in the assay with S. aureus ATCC 29213 (setting [2]) is above 64 µg/mL.

On to `O=C(c1c(-c2cc3cc(Cl)ccc3[nH]2)[nH]c2cc(Br)ccc12)C(F)(F)F` [Compound 178, 1-(6-bromo-5′-chloro-1H,1′H-[2,2′-biindol]-3-yl)-2,2,2-trifluoroethan-1-one], for which the IC50 against MRSA PK is below 50 nM. The MIC in the assay with S. aureus ATCC 29213 (ATCC29213, S. aureus (ATCC29213), Table 9, read-out: MIC (μg/mL) H) was determined as 1 µg/mL (≈ 2.26 µM).

On to `Brc1ccc2cc(-c3nc4ccccc4s3)[nH]c2c1` [Compound 22a, 2-(6-Bromo-1H-indol-2-yl)benzo[d]thiazole], for which the IC50 on MRSA PK (setting [1]) was 152 nM. The inhibition at 10 µM on MRSA PK turned out to be 89.8%. Moreover, the MIC in the assay on S. aureus ATCC 29213 (setting [2]) is above 64 µg/mL.

In the case of `Brc1ccc2cc(-c3cc4ccccc4o3)[nH]c2c1` [Compound 22b, 2-(Benzofuran-2-yl)-6-bromo-1H-indole], the 50% inhibitory concentration (IC50) on MRSA PK (setting [1]) turned out to be 108 nM. In addition, at MRSA PK, the inhibition at 10 µM was 95.9%. In addition, in the assay with S. aureus ATCC 29213 (setting [2]), the MIC is above 64 µg/mL.

Take `CN1CCN(CCn2c(-c3cc4ccc(Br)cc4[nH]3)cc3cc(Br)ccc32)CC1` [Compound 20a, 5,6′-Dibromo-1-(2-(4-methylpiperazin-1-yl)ethyl)-1H,1′H-2,2′-biindole]: the IC50 on MRSA PK (setting [1]) worked out at 2 nM. Also, the inhibition at 10 µM at MRSA PK was determined as 100%. In addition, in the assay with S. aureus ATCC 29213 (setting [2]), the MIC was 4 µg/mL (≈ 7.75 µM).

For the compound `OCCn1c(-c2cc3ccc(Br)cc3[nH]2)cc2cc(Br)ccc21` [Compound 17, 2-(5,6′-Dibromo-1H, 1′H-[2,2′-biindol]-1-yl)ethanol], the half-maximal inhibitory concentration (IC50) at MRSA PK (setting [1]) is 1.3 nM. The inhibition at 10 µM on MRSA PK came to 101%. The MIC with S. aureus ATCC 29213 (setting [2]) was 2 µg/mL (≈ 4.61 µM).

As for `Brc1ccc2cc(-c3cc4ccc(Br)cc4[nH]3)[nH]c2c1` [Compound 10b, 6,6′-Dibromo-1H,1′H-2,2′-biindole], the IC50 on MRSA PK (setting [1]) turned out to be 7 nM. Besides, on MRSA PK, the inhibition at 10 µM is 84.9%. In addition, in the assay with S. aureus ATCC 29213 (setting [2]), the MIC came out at 16 µg/mL (≈ 41 µM).

For the compound `Brc1ccc2cc(-c3cc4cc(Br)c(Br)cc4[nH]3)[nH]c2c1` [Compound 10k, 5,6,6′-Tribromo-1H,1′H-2,2′-biindole], the IC50 on MRSA PK (setting [1]) was determined as 1.5 nM. The inhibition at 10 µM at MRSA PK came to 94.1%. For the same compound, the MIC in the assay on S. aureus ATCC 29213 (setting [2]) stood at 0.5 µg/mL (≈ 1.07 µM).
